Article PMC8235661, “Photoelectric Dye, NK-5962, as a Potential Drug for Preventing Retinal Neurons from Apoptosis: Pharmacokinetic Studies Based on Review of the Evidence” (Life, 2021)
Where “and” joins values, the source holds several entries; their conditions need not be identical. Equal entries are not always repeated. Where two headings read alike, the source gives them in different places.

Tests used:
[1] = test system: chick retinal cells including neurons and glial cells; test: Cell viability assay using mixed culture of chick retinal neurons and glial cells (LIVE/DEAD stain); type: cell-based; conditions: for percentage of dead cells in the exposure to light (mean): 2.78% in the absence of NK-5962
Source text: Egg shells (Fukuda Breeders Co., Ltd., Okayama, Japan) were disinfected with 70% alcohol and 12-day-old chick embryos were removed from a small opening. The eyes at this embryonic stage were used because the outer segments of the retinal photoreceptor cells had not yet been developed. The eyes were enucleated and cut at the midperiphery of the globe and the anterior halves were removed together with the vitreous. The neurosensory retina at this embryonic stage could easily be peeled off from the eye cup. After peeling, retinal tissues were incubated in 0.25% trypsin, 1 mM ethylenediaminetetraacetic acid (EDTA) in Ca^2+, and Mg^2+-free Hanks’ balanced salt solution (HBSS) to disperse retinal cells. After centrifugation, the retinal cells were washed with Dulbecco’s modified Eagle’s medium (DMEM) and seeded at a concentration of 3.5 × 10^5 cell/mL in poly-L-lysine-coated wells of a 96-well multidish containing DMEM supplemented with 10% fetal bovine serum (FBS), 100 mg/L streptomycin, and 100 mg/L ampicillin.
In order to determine the types of cells, either neurons or glial cells derived from neurosensory retinal tissues, retinal cells following 2-day culture were stained for neuron-specific enolase and glial fibrillary acidic protein by immunocytochemistry. The majority of retinal cells at day 2 of the culture were neurons mixed with a small number of glial cells (Figure 2).
Retinal cells at a concentration of 3.5 × 10^5 cell/mL in 220 μL of DMEM with 10% FBS were cultured together with 20 μL of varying concentrations of NK-5962 for 2 days either under protection from light or under light from a fluorescent lamp at 230 lux for 9 h daily. The final concentrations of NK-5962 in the solution were 1.6 × 10^−5, 1.6 × 10^−6, and 1.6 × 10^−7 M. Cells were then incubated for 15 min with SYTO 10 Green fluorescent nucleic acid stain and DEAD Red nucleic acid stain (LIVE/DEAD Reduced Biohazard Viability/Cytotoxicity Kit: Molecular Probes; Thermo Fisher Scientific, Waltham, MA, USA) in HEPES-buffered saline. After being fixed with 4% glutaraldehyde in HEPES-buffered saline, live cells and dead cells were visualized with a 100 W mercury lamp as a light source under a fluorescence inverted microscope through a set of FITC and PI filters (Olympus IX71; Olympus Life Sciences, Tokyo, Japan). Images in the center of each well were captured with a CCD camera and stored in a computer. Three wells were assigned to each condition of incubation in one series of experiments and the entire procedure was repeated three times on different days to obtain nine results for each condition. Green live cells (stained with SYTO 10 Green) and orange dead cells (stained with both SYTO10 Green and DEAD RED) in the images for each well were counted and the percentage of dead cells to the total cells was analyzed statistically (Figure 2).

[2] = Hepatic microsomal stability assay, human; type: in vitro ADME
Description: The disappearance of the parent compound over time was measured by using the amount of drug at time zero as a reference. After 5 min of preincubation, 1 mM NADPH (final concentration, the same applies to the following) was added to a mixture containing 1 μM of the test compound, 0.2 mg/mL of rat or human liver microsomes (Sekisui XenoTech, LLC, Kansas City, KS), 1 mM EDTA, and 100 mM phosphate buffer (pH 7.4) and then incubated at 37 °C for 30 min by rotation at 60 rpm. An aliquot of 50 μL of the incubation mixture was sampled and added to 250 μL of chilled acetonitrile/internal standard (IS). After the centrifugation for 15 min at 3150× g at 4 °C, the supernatants were analyzed by LC-MS/MS. Hepatic microsomal stability (mL/min/kg, CLint) was calculated according to the previous report and 44.8 or 48.8 mg microsomal protein/g liver and 40.0 or 25.7 g liver/kg body weight were used as scaling factors for the rat or human, respectively.

[3] = Reactive oxygen species (ROS) assay under simulated sunlight; type: physicochemical
Description: The ROS assay was designed to detect both singlet oxygen and superoxide generated from photo-irradiated chemicals. Briefly, singlet oxygen was measured in aqueous solution by spectrophotometrically monitoring the bleaching of p-nitrosodimethylaniline at 440 nm using imidazole as a selective acceptor of singlet oxygen. Samples containing the tested chemical (20 or 200 μM), p-nitrosodimethylaniline (50 μM), and imidazole (50 μM) in 20 mM sodium phosphate buffer (pH 7.4) were mixed in a tube. Each sample in 200 μL was transferred into a well of a plastic 96-well plate (clear, untreated, and flat-bottomed) and checked for precipitation under a microscope with an objective lens (×100) before light exposure. The plate was subjected to a measurement of absorbance at 440 nm using a microplate spectrophotometer. The plate was fixed in the quartz reaction container with a quartz cover and then irradiated with the simulated sunlight (ultraviolet A/B and visible light, 250 W/m^2, Suntest CPS plus, Atlas Material Testing Technology, Mount Prospect, IL, USA) for 1 h. After agitation on a plate shaker, the UV absorbance at 440 nm was measured. For the determination of superoxide, samples containing the test chemical (20 or 200 μM) and nitroblue tetrazolium (50 μM) in 20 mM sodium phosphate buffer were irradiated with the simulated sunlight for 1 h and the reduction in nitroblue tetrazolium was measured by the increase in absorbance at 560 nm in the same manner as the singlet oxygen determination. Experiments were performed in triplicate wells in three independent runs. As the final concentration, 200 μM test chemical solutions should be subjected to the ROS assay. However, when precipitation could be observed at 200 μM under the optical microscope, additional experiments should be performed under appropriate dilution (20, 50, or 100 μM).

Cytotoxicity test = type: cell-based
Skin sensitization test = conditions: in vivo
[4] = Tests for the biological evaluation of medical devices (ISO 10993); conditions: data not shown
[5] = test system: chick retinal cells including neurons and glial cells; set-up: method as in PMID 18414992; conditions: cited from earlier work; for The Percentage of Dead Cells in Total Cells: 2 days, per well
[6] = 0.16 μM NK-5962, exposure to light
[7] = 1.6 μM NK-5962, exposure to light
[8] = 16 μM NK-5962, exposure to light
[9] = 20 µM, simulated sunlight 1 h, mean ± standard deviation (n = 3)

CCCCN(CCCC)c1ccc(C=Cc2sc3ccccc3[n+]2CC(=O)O)cc1.[Br-] [NK-5962, 2-[2-[4-(dibutylamino)phenyl]ethenyl]-3-carboxymethylbenzothiazolium bromide]
rate of the percentage of dead cells compared with the absence of NK-5962 [1, 6]: 105% | percentage of dead cells in the exposure to light (mean) [1, 6]: 2.93% | rate of the percentage of dead cells compared with the absence of NK-5962 [1, 7]: 68% | percentage of dead cells in the exposure to light (mean) [1, 7]: 1.89% | rate of the percentage of dead cells compared with the absence of NK-5962 [1, 8]: 42% | percentage of dead cells in the exposure to light (mean) [1, 8]: 1.17% | IC50 ([1]; Gallus gallus, corrected with non-binding ratio 0.34 in 10% FBS, read-out: IC50 based on free form of NK-5962): 1700 nM | Microsome Metabolic Stability Human ([2]; 1 μM, 0.2 mg/mL microsomes, 1 mM NADPH, 30 min): 54.5 µL/min/mg | metabolic stability (in words) ([2]; human liver microsomes): moderate metabolic stability | stability in the absence of the coenzyme NADPH ([2]; human liver microsomes, without NADPH): stable | CLint scaled at 1 μM ([2]; human, liver microsomes, pH 7.4, 1 μM, 0.2 mg/mL microsomes, 1 mM NADPH, 30 min, read-out: Microsome Metabolic Stability Human (CLint)): 68.3 mL/min/kg | Reactive Oxygen Species Generation Singlet oxygen [3, 9]: 93 ± 14 ΔA440 × 1000 | Reactive Oxygen Species Generation Superoxide [3, 9]: Not detected | phototoxicity conclusion from ROS assay ([3]; low level of reactive oxygen species generation): less phototoxic | toxicity in the cytotoxicity test (Cytotoxicity test): not toxic | toxicity in the skin sensitization test (Skin sensitization test): not toxic | toxicity in all tests for the biological evaluation of medical devices (ISO 10993) [4]: safe | percentage of dead cells, dependence on concentration ([5]; 2 days culture, dark or light condition, P = 0.0183 two-factor ANOVA): significantly smaller at higher concentrations | The Percentage of Dead Cells in Total Cells ([5]; NK-5962 1.6 × 10^−5 M, light exposure yes (230 lux 9 h daily)): 1.3% and 0% and 0.5% and 0.3% and 1.9% and 3.2% and 3.0% | The Percentage of Dead Cells in Total Cells ([5]; NK-5962 1.6 × 10^−6 M, light exposure no): 2.5% and 0.4% and 1.3% and 2.4% and 0.8% and 1.7% and 1.9% and 1.4% | The Percentage of Dead Cells in Total Cells ([5]; NK-5962 1.6 × 10^−7 M, light exposure no): 5.1% and 2.0% and 0.3% and 1.2% and 0% and 2.3% and 2.2% and 1.3%
